Results as given in patent US20100178326A1, “AMINOPHOSPHONATE CARRIERS FOR LIPOSOME-BASED DRUG RELEASE SYSTEMS” (priority 2008, published 2010).

assay: Liposome alanine efflux coupled with enzymatic assays; settings: alanine efflux after one hour of exposure; alanine-loaded DPPC/cholesterol (3:1) liposomes; carrier added in DMSO; control with no carrier 0.7
Protocol: Two sets of tests were undertaken to determine the viability of such aminophosphonate compounds as drug carriers in liposome-based delivery systems. The first evaluated liposome efflux coupled with enzymatic assays. In such an experiment, unilamellar liposomes loaded with 300 mM of alanine (an amino acid) were prepared from dipalmitoyl phosphatidyl choline (DPPC) and cholesterol (3:1 molar ratio) (in accordance with Torchilin, V. et al., Liposomes 2003, Second Edition, Oxford Press). Several samples of alanine-loaded liposomes were then loaded further with identical amounts of the different aminophosphonate carriers from above (with DMSO as a solvent) thereby producing different samples with different carriers but with same concentrations. The liposomes were then measured for alanine efflux after one hour of exposure as the conversion of alanine to pyruvate, catalyzed by Glutamic-Pyruvic Transmaminase enzyme, and further to lactate, catalyzed by the enzyme Lactate Dehydrogenase, accompanied by the oxidation of nicotinamide cofactor NADH to NAD^+ (as monitored by UV spectroscopy). The results are tabulated below (with a control of no carrier): […]

Point of comparison: CCCCOP(=O)(OCCCC)C(C)(C)NCc1ccccc1 [Example 2], “Alanine Flux” value 3.1 nmol/h × m^2. Against it:
- COP(=O)(OC)C(C)(C)NCc1ccccc1 [Example 1] — higher, 4.4 nmol/h × m^2
- CCCCC(CC)COP(=O)(OCC(CC)CCCC)C(C)(C)NCc1ccccc1 (stereo not shown) [Example 3] — higher, 4.3 nmol/h × m^2
- COP(=O)(OC)C1(NCc2ccccc2)CCCCC1 [Example 4] — higher, 7.2 nmol/h × m^2
- CCCCOP(=O)(OCCCC)C1(NCc2ccccc2)CCCCC1 [Example 5] — higher, 4.4 nmol/h × m^2
- COP(=O)(OC)C(C)(C)Nc1ccccc1 [Example 6] — higher, 7.8 nmol/h × m^2
- CCCCOP(=O)(OCCCC)C1(Nc2ccccc2)CCCCC1 [Example 7] — higher, 4.4 nmol/h × m^2
